From article PMC5218480 (PLoS ONE, 2017)

System: MV-4-11 cells
Test: Gene expression microarray analysis (Affymetrix PrimeView) and GSEA
Type: cell-based, human
Design: RFU PODN (11730768_x_at) / Fold change /veh PODN (11730768_x_at) / RFU LINC00158 (11744669_a_at) / Fold change /veh LINC00158 (11744669_a_at) / RFU DUSP10 (11751237_a_at) / Fold change /veh DUSP10 (11751237_a_at) / RFU ID3 (11757404_x_at) / Fold change /veh ID3 (11757404_x_at) / RFU PLEKHG5 (11737974_s_at) / Fold change /veh PLEKHG5 (11737974_s_at) / RFU LRRC4B (11730491_at) / Fold change /veh LRRC4B (11730491_at) / RFU GIMAP4 (11747438_a_at) / Fold change /veh GIMAP4 (11747438_a_at) / RFU KRT8 (11758183_x_at) / Fold change /veh KRT8 (11758183_x_at) / RFU CNN1 (11734310_a_at) / Fold change /veh CNN1 (11734310_a_at) / RFU VPS37D (11726825_at) / Fold change /veh VPS37D (11726825_at) / RFU C10orf10 (11716522_x_at) / Fold change /veh C10orf10 (11716522_x_at) / RFU KIR2DL2 /// KIR2DL4 /// KIR2DL5A /// KIR2DL5B /// KIR2DS1 /// KIR2DS2 /// KIR2DS3 /// KIR2DS4 /// KIR3DL3 /// KIR3DL3 /// KIR3DS1 (11738374_at) / Fold change /veh KIR2DL2 /// KIR2DL4 /// KIR2DL5A /// KIR2DL5B /// KIR2DS1 /// KIR2DS2 /// KIR2DS3 /// KIR2DS4 /// KIR3DL3 /// KIR3DL3 /// KIR3DS1 (11738374_at) / RFU C1QL1 (11718748_at) / Fold change /veh C1QL1 (11718748_at) / RFU TMPRSS4 (11747572_a_at) / Fold change /veh TMPRSS4 (11747572_a_at) / RFU HAMP (11756126_x_at) / Fold change /veh HAMP (11756126_x_at) / RFU RNFT2 (11725882_a_at) / Fold change /veh RNFT2 (11725882_a_at) / RFU NR4A2 (11747474_a_at) / Fold change /veh NR4A2 (11747474_a_at) / RFU ABCC12 (11746883_a_at) / Fold change /veh ABCC12 (11746883_a_at) / RFU TMEM136 (11760407_x_at) / Fold change /veh TMEM136 (11760407_x_at) / RFU CLDN22 /// WWC2 (11732394_at) / Fold change /veh CLDN22 /// WWC2 (11732394_at) / RFU HLA-DPB1 (11760878_x_at) / Fold change /veh HLA-DPB1 (11760878_x_at) / RFU SPINT1 (11716480_a_at) / Fold change /veh SPINT1 (11716480_a_at) / RFU GAP43 (11754022_s_at) / Fold change /veh GAP43 (11754022_s_at) / RFU A4GNT (11735810_at) / Fold change /veh A4GNT (11735810_at) / RFU PRB3 (11715151_x_at) / Fold change /veh PRB3 (11715151_x_at) / RFU TUBB4B (11761932_at) / Fold change /veh TUBB4B (11761932_at) / RFU CAPN14 (11732068_a_at) / Fold change /veh CAPN14 (11732068_a_at) / RFU TMCC2 (11721928_a_at) / Fold change /veh TMCC2 (11721928_a_at) / RFU IRGQ (11745062_a_at) / Fold change /veh IRGQ (11745062_a_at) / RFU FAM174B (11720279_a_at) / Fold change /veh FAM174B (11720279_a_at) / RFU TMPRSS4 (11748680_a_at) / Fold change /veh TMPRSS4 (11748680_a_at) / RFU FAM212B (11763350_a_at) / Fold change /veh FAM212B (11763350_a_at) / RFU PLEKHG5 (11743358_a_at) / Fold change /veh PLEKHG5 (11743358_a_at) / RFU ZSCAN30 (11745921_a_at) / Fold change /veh ZSCAN30 (11745921_a_at) / RFU CMKLR1 (11741424_a_at) / Fold change /veh CMKLR1 (11741424_a_at) / RFU LOC101060620 /// MAPK8IP1 (11723275_at) / Fold change /veh LOC101060620 /// MAPK8IP1 (11723275_at) / RFU SPTSSB (11747773_x_at) / Fold change /veh SPTSSB (11747773_x_at) / RFU PRSS12 (11739890_at) / Fold change /veh PRSS12 (11739890_at) / RFU BIN1 (11741810_x_at) / Fold change /veh BIN1 (11741810_x_at) / RFU WNT11 (11732464_a_at) / Fold change /veh WNT11 (11732464_a_at) / RFU C10orf10 (11716521_a_at) / Fold change /veh C10orf10 (11716521_a_at) / RFU C5orf56 (11738089_at) / Fold change /veh C5orf56 (11738089_at) / RFU CYB561 (11721691_x_at) / Fold change /veh CYB561 (11721691_x_at) / RFU ANKRD19P (11752326_a_at) / Fold change /veh ANKRD19P (11752326_a_at) / RFU OR2T12 /// OR2T33 /// OR2T8 (11738714_s_at) / Fold change /veh OR2T12 /// OR2T33 /// OR2T8 (11738714_s_at) / RFU VCAN (11748164_a_at) / Fold change /veh VCAN (11748164_a_at) / RFU JSRP1 (11732532_at) / Fold change /veh JSRP1 (11732532_at) / RFU KRTAP10-11 (11738290_x_at) / Fold change /veh KRTAP10-11 (11738290_x_at) / RFU MYO3A (11730013_a_at) / Fold change /veh MYO3A (11730013_a_at) / RFU EBF3 (11725865_a_at) / Fold change /veh EBF3 (11725865_a_at) / RFU CAMK2N1 (11719241_x_at) / Fold change /veh CAMK2N1 (11719241_x_at) / RFU C5orf56 (11738088_a_at) / Fold change /veh C5orf56 (11738088_a_at) / RFU OLFML3 (11715873_a_at) / Fold change /veh OLFML3 (11715873_a_at) / RFU LOC100653217 /// NTM (11731650_a_at) / Fold change /veh LOC100653217 /// NTM (11731650_a_at) / RFU MAPK11 (11762145_a_at) / Fold change /veh MAPK11 (11762145_a_at) / RFU FIZ1 (11724087_x_at) / Fold change /veh FIZ1 (11724087_x_at) / RFU OASL (11726364_x_at) / Fold change /veh OASL (11726364_x_at) / RFU SOX15 (11748057_x_at) / Fold change /veh SOX15 (11748057_x_at) / RFU CD79A (11719716_a_at) / Fold change /veh CD79A (11719716_a_at) / RFU HIST1H1D (11736915_at) / Fold change /veh HIST1H1D (11736915_at) / RFU CASKIN2 (11723855_a_at) / Fold change /veh CASKIN2 (11723855_a_at) / RFU LOC730098 (11760151_x_at) / Fold change /veh LOC730098 (11760151_x_at) / RFU OR4N2 (11742367_at) / Fold change /veh OR4N2 (11742367_at) / RFU PRRT2 (11749266_a_at) / Fold change /veh PRRT2 (11749266_a_at) / RFU SNX32 (11753110_a_at) / Fold change /veh SNX32 (11753110_a_at) / RFU CDHR5 (11726645_a_at) / Fold change /veh CDHR5 (11726645_a_at) / RFU RCAN1 (11760418_a_at) / Fold change /veh RCAN1 (11760418_a_at) / RFU FAM167A (11723789_a_at) / Fold change /veh FAM167A (11723789_a_at) / RFU FAM26E (11764081_at) / Fold change /veh FAM26E (11764081_at) / RFU ISYNA1 (11749810_s_at) / Fold change /veh ISYNA1 (11749810_s_at) / RFU ACY1 (11761880_at) / Fold change /veh ACY1 (11761880_at) / RFU 11764098_at / Fold change /veh 11764098_at / RFU SAMD14 (11745864_x_at) / Fold change /veh SAMD14 (11745864_x_at) / RFU NPB (11741838_a_at) / Fold change /veh NPB (11741838_a_at) / RFU TMPRSS6 (11731388_a_at) / Fold change /veh TMPRSS6 (11731388_a_at) / RFU KRTAP10-2 (11738614_at) / Fold change /veh KRTAP10-2 (11738614_at) / RFU ARHGAP8 /// PRR5-ARHGAP8 (11727945_x_at) / Fold change /veh ARHGAP8 /// PRR5-ARHGAP8 (11727945_x_at) / RFU KRTAP5-7 /// NADSYN1 (11734609_at) / Fold change /veh KRTAP5-7 /// NADSYN1 (11734609_at) / RFU RASL12 (11751679_a_at) / Fold change /veh RASL12 (11751679_a_at) / RFU CDKN2B (11736163_a_at) / Fold change /veh CDKN2B (11736163_a_at) / RFU PRF1 (11729649_at) / Fold change /veh PRF1 (11729649_at) / RFU, ZNF638 /// ZNF638-IT1 / Fold change vs veh, ZNF638 /// ZNF638-IT1 / RFU, PANK3 / Fold change vs veh, PANK3 / RFU, SH3YL1 / Fold change vs veh, SH3YL1 / RFU, ZEB2 / Fold change vs veh, ZEB2 / RFU, NRIP1 / Fold change vs veh, NRIP1 / RFU, PTTG1IP / Fold change vs veh, PTTG1IP / RFU, CAPN2 / Fold change vs veh, CAPN2 / RFU, MED14 / Fold change vs veh, MED14 / RFU, SNORA58 / Fold change vs veh, SNORA58 / RFU, C1orf63 / Fold change vs veh, C1orf63 / RFU, LRRFIP1 / Fold change vs veh, LRRFIP1 / RFU, NDUFAF7 / Fold change vs veh, NDUFAF7 / RFU, SLC12A2 / Fold change vs veh, SLC12A2 / RFU, IBTK / Fold change vs veh, IBTK / RFU, ESF1 / Fold change vs veh, ESF1 / Fold change vs veh, TMEM50B / RFU, TAOK1 / Fold change vs veh, TAOK1 / RFU, ACBD3 / Fold change vs veh, ACBD3 / RFU, TMA16 / Fold change vs veh, TMA16 / RFU, RWDD3 / Fold change vs veh, RWDD3 / RFU, BCAT1 / Fold change vs veh, BCAT1 / RFU, EDEM3 / Fold change vs veh, EDEM3 / RFU, TMEM33 / Fold change vs veh, TMEM33 / RFU, WDR75 / Fold change vs veh, WDR75 / RFU, AHCTF1 / Fold change vs veh, AHCTF1 / RFU, TFRC / Fold change vs veh, TFRC / RFU, ZDHHC17 / Fold change vs veh, ZDHHC17 / RFU, NOM1 / Fold change vs veh, NOM1 / RFU, ARL8B / Fold change vs veh, ARL8B / RFU, ZBTB11 / Fold change vs veh, ZBTB11 / RFU, TAMM41 / Fold change vs veh, TAMM41 / RFU, KIAA1704 /// LOC100996395 / Fold change vs veh, KIAA1704 /// LOC100996395 / RFU, ING1 / Fold change vs veh, ING1 / RFU, TRMT61B / Fold change vs veh, TRMT61B / RFU, FUBP3 / Fold change vs veh, FUBP3 / RFU, TP53 / Fold change vs veh, TP53 / RFU, TNKS2 / Fold change vs veh, TNKS2 / RFU, ZFP14 / Fold change vs veh, ZFP14 / RFU, ACTR2 / Fold change vs veh, ACTR2 / RFU, PPP3R1 / Fold change vs veh, PPP3R1 / RFU, PIK3R1 / Fold change vs veh, PIK3R1 / RFU, HNRNPA1 / Fold change vs veh, HNRNPA1 / RFU, RNF170 / Fold change vs veh, RNF170 / RFU, ZNF28 / Fold change vs veh, ZNF28 / RFU, RNGTT / Fold change vs veh, RNGTT / RFU, OGT / Fold change vs veh, OGT / RFU, BRD1 / Fold change vs veh, BRD1 / RFU, MARS / Fold change vs veh, MARS / RFU, ZNF655 / Fold change vs veh, ZNF655 / RFU, FAHD1 / Fold change vs veh, FAHD1 / RFU, BDP1 / Fold change vs veh, BDP1 / RFU, LRRCC1 / Fold change vs veh, LRRCC1 / RFU, ARID1A / Fold change vs veh, ARID1A / RFU, ZNF146 / Fold change vs veh, ZNF146 / RFU, ZNF330 / Fold change vs veh, ZNF330 / RFU, GPN3 / Fold change vs veh, GPN3 / RFU, C9orf123 / Fold change vs veh, C9orf123 / RFU, N4BP2L2 / Fold change vs veh, N4BP2L2 / RFU, ARFIP1 / Fold change vs veh, ARFIP1 / RFU, FAM179B / Fold change vs veh, FAM179B / RFU, BCL10 / Fold change vs veh, BCL10 / RFU, UHRF1BP1L / Fold change vs veh, UHRF1BP1L / RFU, BET1 / Fold change vs veh, BET1 / RFU, CNOT2 / Fold change vs veh, CNOT2 / RFU, ZNF268 / Fold change vs veh, ZNF268 / Fold change vs veh, ZNF507 / RFU, DGCR2 / Fold change vs veh, DGCR2 / RFU, WDSUB1 / Fold change vs veh, WDSUB1 / Fold change vs veh, HSP90B1 /// MIR3652 / RFU, ADSS / Fold change vs veh, ADSS / RFU, GK / Fold change vs veh, GK / RFU, ZNF148 / Fold change vs veh, ZNF148 / RFU, TAF9 / Fold change vs veh, TAF9 / RFU, SLC1A5 / Fold change vs veh, SLC1A5 / RFU, SLMO2 / Fold change vs veh, SLMO2 / RFU, ABCC4 / Fold change vs veh, ABCC4 / RFU, LOC101060439 /// RAP1B / Fold change vs veh, LOC101060439 /// RAP1B / RFU, RFX7 / Fold change vs veh, RFX7 / RFU, GTPBP10 / Fold change vs veh, GTPBP10 / RFU, CNEP1R1 / Fold change vs veh, CNEP1R1 / RFU, BIVM-ERCC5 /// ERCC5 / Fold change vs veh, BIVM-ERCC5 /// ERCC5 / RFU, ILF3 / Fold change vs veh, ILF3 / RFU 11762660_at / Fold change /veh 11762660_at / RFU VCAN (11757783_s_at) / Fold change /veh VCAN (11757783_s_at) / RFU DDX43 (11728927_at) / Fold change /veh DDX43 (11728927_at) / RFU KRT8 (11758188_x_at) / Fold change /veh KRT8 (11758188_x_at) / RFU NKD1 (11759106_at) / Fold change /veh NKD1 (11759106_at) / RFU SRD5A1 (11742802_a_at) / Fold change /veh SRD5A1 (11742802_a_at) / RFU TPSAB1 /// TPSB2 (11721975_s_at) / Fold change /veh TPSAB1 /// TPSB2 (11721975_s_at) / RFU GSTM3 (11746129_a_at) / Fold change /veh GSTM3 (11746129_a_at) / RFU IL23R (11737362_x_at) / Fold change /veh IL23R (11737362_x_at) / RFU TMEM51 (11727254_a_at) / Fold change /veh TMEM51 (11727254_a_at) / RFU PIWIL2 (11732686_x_at) / Fold change /veh PIWIL2 (11732686_x_at) / RFU ORM1 (11744905_x_at) / Fold change /veh ORM1 (11744905_x_at) / RFU CCDC152 (11743942_at) / Fold change /veh CCDC152 (11743942_at) / RFU ECM1 (11717891_a_at) / Fold change /veh ECM1 (11717891_a_at) / RFU IL23R (11748794_a_at) / Fold change /veh IL23R (11748794_a_at) / RFU TNFAIP8L3 (11732012_x_at) / Fold change /veh TNFAIP8L3 (11732012_x_at) / RFU MBOAT4 (11741988_at) / Fold change /veh MBOAT4 (11741988_at) / RFU 11764193_at / Fold change /veh 11764193_at / RFU TMEM53 (11763286_at) / Fold change /veh TMEM53 (11763286_at) / RFU MAGEB2 (11727129_at) / Fold change /veh MAGEB2 (11727129_at) / RFU TMEM200A (11744735_a_at) / Fold change /veh TMEM200A (11744735_a_at) / RFU CCDC152 (11751479_a_at) / Fold change /veh CCDC152 (11751479_a_at) / RFU FAM211A (11726209_a_at) / Fold change /veh FAM211A (11726209_a_at) / RFU RGS16 (11746705_a_at) / Fold change /veh RGS16 (11746705_a_at) / RFU VCAN (11755009_s_at) / Fold change /veh VCAN (11755009_s_at) / RFU RHOB (11743442_s_at) / Fold change /veh RHOB (11743442_s_at) / RFU RGS16 (11720943_a_at) / Fold change /veh RGS16 (11720943_a_at) / RFU RGS16 (11720944_at) / Fold change /veh RGS16 (11720944_at) / RFU, VPS4B / Fold change vs veh, VPS4B / RFU, CREB1 / Fold change vs veh, CREB1 / RFU, DNAJC13 / Fold change vs veh, DNAJC13 / RFU, GNAQ / Fold change vs veh, GNAQ / RFU, CDK5R1 / Fold change vs veh, CDK5R1 / RFU, ZRANB3 / Fold change vs veh, ZRANB3 / RFU, CUL4A / Fold change vs veh, CUL4A / RFU, CCNY / Fold change vs veh, CCNY / RFU, UFL1 / Fold change vs veh, UFL1 / RFU, COG3 / Fold change vs veh, COG3 / RFU, DIAPH2 / Fold change vs veh, DIAPH2 / RFU, SKA2 / Fold change vs veh, SKA2 / RFU, AFF3 / Fold change vs veh, AFF3 / RFU, LMF1 / Fold change vs veh, LMF1 / RFU, IPO11 / Fold change vs veh, IPO11 / RFU, DFFB / Fold change vs veh, DFFB / RFU, FOXP1 / Fold change vs veh, FOXP1 / RFU, CARD8 / Fold change vs veh, CARD8 / RFU, STRN3 / Fold change vs veh, STRN3 / RFU, ADK / Fold change vs veh, ADK / RFU, RASSF2 / Fold change vs veh, RASSF2 / RFU, WIPF1 / Fold change vs veh, WIPF1 / RFU, LARP1B / Fold change vs veh, LARP1B / RFU, RASA1 / Fold change vs veh, RASA1 / RFU, RB1 / Fold change vs veh, RB1 / RFU, PPFIA1 / Fold change vs veh, PPFIA1 / RFU, MAT2A / Fold change vs veh, MAT2A / RFU, CCT5 / Fold change vs veh, CCT5 / RFU, WDR92 / Fold change vs veh, WDR92 / RFU, CUX1 / Fold change vs veh, CUX1 / RFU, TTC7A / Fold change vs veh, TTC7A / RFU, TMEM135 / Fold change vs veh, TMEM135 / RFU, DEPTOR / Fold change vs veh, DEPTOR / RFU, CPM / Fold change vs veh, CPM / RFU, DNAJB6 / Fold change vs veh, DNAJB6 / RFU, CACNA2D3 / Fold change vs veh, CACNA2D3 / RFU, DTX4 / Fold change vs veh, DTX4 / RFU, TFCP2 / Fold change vs veh, TFCP2 / RFU, GMCL1 /// GMCL1P1 / Fold change vs veh, GMCL1 /// GMCL1P1 / RFU, AEBP2 / Fold change vs veh, AEBP2 / RFU, SNHG1 /// SNORD22 /// SNORD25 /// SNORD26 /// SNORD27 /// SNORD28 /// SNORD29 /// SNORD31 / Fold change vs veh, SNHG1 /// SNORD22 /// SNORD25 /// SNORD26 /// SNORD27 /// SNORD28 /// SNORD29 /// SNORD31 / Fold change (Aza/veh), C12orf56 (ProbeSet 11735607_a_at) / Fold change (ACY-1035/veh), C12orf56 (ProbeSet 11735607_a_at) / Fold change (Aza/veh), FGFR1OP (ProbeSet 11751329_s_at) / Fold change (ACY-1035/veh), FGFR1OP (ProbeSet 11751329_s_at) / Fold change (Aza/veh), VPS36 (ProbeSet 11739960_a_at) / Fold change (ACY-1035/veh), VPS36 (ProbeSet 11739960_a_at) / RFU SYPL1 (11715823_x_at) / Fold change /veh SYPL1 (11715823_x_at) / RFU IGFBP7 (11715501_s_at) / Fold change /veh IGFBP7 (11715501_s_at) / RFU REEP3 (11722064_at) / Fold change /veh REEP3 (11722064_at) / RFU IGLL1 (11728026_x_at) / Fold change /veh IGLL1 (11728026_x_at): dose or concentration left out as unconfirmed
Details: MV-4-11 cells, 48 hours

## Nc1ccc(-c2cccs2)cc1NC(=O)c1ccc2c(c1)cc(C1CC1)n2CCN1CCOCC1 [ACY-1035]
  RFU ECM1 (11717891_a_at): 18.49 RFU
